From patent publication US20120015907A1, “Furopyridine compounds and uses thereof” (NOVARTIS AG, priority 2010, published 2012)

Columns and labels:
HCV polymerase = target: T1, HCV polymerase (Hepatitis C virus genotype 1b, UniProt Q9WMX2); assay: biochemical; settings: polymerase assay of Biological Example 1; read-out: NS5B polymerase IC50
T1 construct: (His)6 (C)

[1] = system: HCV replicon I389luc-ubi-neo/NS3-3'/ET in ET (Huh-lucubineo-ET) cells; assay: Replicon assay (Biological Example 2), luciferase read-out; format: cell-based; settings: Hepatitis C virus, luciferase activity 48 hours after compound addition
Procedure, shortened: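 ET cells stably carry the replicon with adaptive mutations E1202G, […] and K1846T. Compound is added 24 h after plating at 0.1 nM–50 μM final (10-point, 3-fold dilutions) with 0.5% DMSO, and luciferase is read 48 h later. EC50 comes from a Hill-equation fit of % inhibition versus no-compound control.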

Compound | IC50 (HCV polymerase) [nM] | IC50 [1] [nM]
CNC(=O)c1c(-c2ccc(C)cc2)oc2nc(N(C)S(C)(=O)=O)c(I)cc12 [Example 2.9, 5-iodo-N-methyl-6-(N-methylmethylsulfonamido)-2-p-tolylfuro[2,3-b]pyridine-3-carboxamide] | 16 | ≤ 100
CNC(=O)c1c(-c2ccc(F)cc2)oc2nc(N(CCCCS(C)(=O)=O)S(C)(=O)=O)c(I)cc12 [Example 18.997, 2-(4-fluorophenyl)-5-iodo-N-methyl-6-(N-(4-(methylsulfonyl)butyl)methylsulfonamido)furo[2,3-b]pyridine-3-carboxamide] | 22 | ≤ 100
CCc1ccc(-c2oc3nc(N(CCCCC(=O)O)S(C)(=O)=O)c(C4CC4)cc3c2C(=O)NC)cc1 [Example 27.8, 5-(N-(5-cyclopropyl-2-(4-ethylphenyl)-3-(methylcarbamoyl)furo[2,3-b]pyridin-6-yl)methylsulfonamido) pentanoic acid] | 1 | ≤ 100
C=Cc1cc2c(C(=O)NC)c(-c3ccc(F)cc3)oc2nc1N(CCCCC(=O)OC)S(C)(=O)=O [Example 24.3, methyl 5-(N-(2-(4-fluorophenyl)-3-(methylcarbamoyl)-5-vinylfuro[2,3-b]pyridin-6-yl)methylsulfonamido) pentanoate] | 57 | ≤ 100
CNC(=O)c1c(-c2ccc(Cl)cc2)oc2nc(N(CCCC3CCCS3(=O)=O)S(C)(=O)=O)c(I)cc12 (stereo not drawn) [Example 18.98, 2-(4-Chloro-phenyl)-6-{[3-(1,1-dioxo-tetrahydrothiophen-2-yl)-propyl]-methanesulfonyl-amino}-5-iodo-furo[2,3-b]pyridine-3-carobxylic acid methylamide] | 4 | ≤ 100
CCc1cc2c(C(=O)NC)c(-c3ccc(F)cc3)oc2nc1N(CCCCS(=O)(=O)C(C)C)S(C)(=O)=O [Example 23.92, 5-ethyl-2-(4-fluorophenyl)-6-(N-(4-(isopropylsulfonyl)butyl)methylsulfonamido)-N-methylfuro[2,3-b]pyridine-3-carboxamide] | 11 | ≤ 100
CNC(=O)c1c(-c2ccc(F)cc2)oc2nc(N(CCO)S(C)(=O)=O)c(C3CC3)cc12 [Example 2.2, 5-cyclopropyl-2-(4-fluorophenyl)-6-(N-(2-hydroxyethyl)methylsulfonamido)-N-methylfuro[2,3-b]pyridine-3-carboxamide] | 54 | ≤ 100
CNC(=O)c1c(-c2ccc(C)cc2)oc2nc(N(CCCCC(=O)OC)S(C)(=O)=O)c(C3CC3)cc12 [Example 25.2, methyl 5-(N-(5-cyclopropyl-3-(methylcarbamoyl)-2-p-tolylfuro[2,3-b]pyridin-6-yl)methylsulfonamido) pentanoate] | 3 | ≤ 100
CNC(=O)c1c(-c2ccc(Cl)cc2)oc2nc(N(CCCCC(=O)O)S(C)(=O)=O)c(C3CC3)cc12 [Example 27.5, 5-(N-(2-(4-chlorophenyl)-5-cyclopropyl-3-(methylcarbamoyl)furo[2,3-b]pyridin-6-yl)methylsulfonamido) pentanoic acid] | 1 | ≤ 100
CCc1cc2c(C(=O)NC)c(-c3ccc(F)cc3)oc2nc1N(CCCS(=O)(=O)C(C)C)S(C)(=O)=O [Example 23.91, 5-ethyl-2-(4-fluorophenyl)-6-(N-(3-(isopropylsulfonyl)propyl)methylsulfonamido)-N-methylfuro[2,3-b]pyridine-3-carboxamide] | 18 | ≤ 100
CCc1cc2c(C(=O)NC)c(-c3ccc(F)cc3)oc2nc1N(C)S(C)(=O)=O [Example 6, 5-Ethyl-2-(4-fluoro-phenyl)-6-(methanesulfonyl-methyl-amino)-furo[2,3-b]pyridine-3-carboxylic acid methylamide] | 20 | ≤ 100
CCc1cc2c(C(=O)NC)c(-c3ccc(F)cc3)oc2nc1N(CCCN1CCCS1(=O)=O)S(C)(=O)=O [Example 23.1, 6-{[3-(1,1-Dioxo-isothiazolidin-2-yl)-propyl]-methanesulfonyl-amino}-5-ethyl-2-(4-fluoro-phenyl)-furo[2,3-b]pyridine-3-carboxylic acid methylamide] | 45 | ≤ 100
CCc1cc2c(C(=O)NC)c(-c3ccc(F)cc3)oc2nc1N(CCCC1CCCS1(=O)=O)S(C)(=O)=O (racemic) [Example 22.98, 6-{[3-(1,1-Dioxo-tetrahydro-1lambdathiophen-2-yl)-propyl]-methanesulfonyl-amino}-5-ethyl-2-(4-fluoro-phenyl)-furo[2,3-b]pyridine-3-carboxylic acid methylamide] | 11 | ≤ 100
CNC(=O)c1c(-c2ccc(C)cc2)oc2nc(N(CCC[C@@H]3CCCS3(=O)=O)S(C)(=O)=O)c(C3CC3)cc12 [Example 24.7, 5-Cyclopropyl-6-{[3-((R)-1,1-dioxo-tetrahydrothiophen-2-yl)-propyl]-methanesulfonyl-amino}-2-p-tolyl-furo[2,3-b]pyridine-3-carboxylic acid methylamide] | 5 | ≤ 100
CNC(=O)c1c(-c2ccc(Oc3ccccc3)cc2)oc2nc(N(C)S(C)(=O)=O)c(C3CC3)cc12 [Example 16, 5-cyclopropyl-N-methyl-6-(N-methylmethylsulfonamido)-2-(4-phenoxyphenyl)furo[2,3-b]pyridine-3-carboxamide] | 3 | ≤ 100
CCc1cc2c(C(=O)NC)c(-c3ccc(F)cc3)oc2nc1N(CCCCS(C)(=O)=O)S(C)(=O)=O [Example 23, 5-Ethyl-2-(4-fluoro-phenyl)-6-[methanesulfonyl-(4-methanesulfonyl-butyl)-amino]-furo[2,3-b]pyridine-3-carboxylic acid methylamide] | 22 | ≤ 100
CNC(=O)c1c(-c2ccc(C)cc2)oc2nc(N(C)S(C)(=O)=O)c(C3CC3)cc12 [Example 2.93, 5-cyclopropyl-N-methyl-6-(N-methylmethylsulfonamido)-2-p-tolylfuro[2,3-b]pyridine-3-carboxamide] | 4 | ≤ 100
CNC(=O)c1c(-c2ccc(F)cc2)oc2nc3c(cc12)C(C)CCCCN3S(C)(=O)=O (stereo not drawn) [Example 36.3, 2-(4-Fluoro-phenyl)-10-methanesulfonyl-5-methyl-5,6,7,8,9,10-hexahydro-1-oxa-10,11-diaza-cycloocta[f]indene-3-carboxylic acid methylamide] | 70 | ≤ 100
CNC(=O)c1c(-c2ccc(C)cc2)oc2nc(N(CCC(C)O)S(C)(=O)=O)c(C3CC3)cc12 (stereo not drawn) [Example 26.7, 5-cyclopropyl-6-(N-(3-hydroxybutyl)methylsulfonamido)-N-methyl-2-p-tolylfuro[2,3-b]pyridine-3-carboxamide] | 2 | ≤ 100
CNC(=O)c1c(-c2ccc(F)cc2)oc2nc3c(cc12)[C@@H](C)C[C@H](O)CN3S(C)(=O)=O (single isomer, unassigned) [Example 34] | 9 | ≤ 100
CNC(=O)c1c(-c2ccc(F)cc2)oc2nc(N(CCCS(C)(=O)=O)S(C)(=O)=O)c(C3CC3)cc12 [Example 24.01] | 1 | ≤ 100
